Assay results taken from ChEMBL document CHEMBL1129698, “Homo-N-nucleosides: Incorporation into oligonucleotides and antiviral activity” (1996).
In brackets after ≈: the same amount, converted by molar mass.

How the values were obtained:
Type in all cases: functional
[1] = test system: Human alphaherpesvirus 1; experiment: Compound was tested for the antiviral activity against herpes simplex virus-1 thymidine kinase deficient (HSV-1 TK-) VMW 1837 strain
[2] = test system: Human alphaherpesvirus 2; experiment: Compound was tested for the antiviral activity against herpes simplex virus-2 (HSV-2) G strain
[3] = Minimum cytotoxic concentration required to cause a microscopically detectable alteration of normal cell morphology
[4] = test system: Human alphaherpesvirus 1; experiment: Compound was tested for the antiviral activity against herpes simplex virus-1 (HSV-1) KOS strain
[5] = test system: Human alphaherpesvirus 1; experiment: Compound was tested for the antiviral activity against herpes simplex virus-1 thymidine kinase deficient (HSV-1 TK-) B2006 strain

Structure (SMILES) | MIC [1] [µg/mL] | MIC [2] [µg/mL] | MIC [3] [µg/mL] | MIC [4] [µg/mL] | MIC [5] [µg/mL]
NC1=NC(=O)C2N=CN(C[C@H]3C[C@H](O)[C@@H](CO)O3)C2=N1 (stereo not given in full) | 12 (≈ 42.7 µM) | 5 (≈ 17.8 µM) | > 400 | 5 (≈ 17.8 µM) | 12 (≈ 42.7 µM)
Nc1ncnc2c1ncn2C[C@H]1C[C@H](O)[C@@H](CO)O1 | 8 (≈ 30.2 µM) | 6 (≈ 22.6 µM) | > 400 | 20 (≈ 75.4 µM) | 10 (≈ 37.7 µM)
O=c1[nH]c(=O)n([C@H]2C[C@H](O)[C@@H](CO)O2)cc1/C=C/Br [BRIVUDINE] | 30 (≈ 90.1 µM) | > 100 | 200 (≈ 600 µM) | 0.007 (≈ 0.021 µM) | 20 (≈ 60 µM)
Nc1nc2c(ncn2COCCO)c(=O)[nH]1 [ACYCLOVIR] | 4 (≈ 17.8 µM) | 0.03 (≈ 0.133 µM) | > 400 | 0.02 (≈ 0.0888 µM) | 80 (≈ 355 µM)
